Experimental data taken from patent publication US20250129135A1, “Multi-Agonist and Use Thereof” (priority 2021, published 2025).
Starred links: 1 amine or outer side, 2 acyl side, 3 side chain; linkers in the order of their positions; H or OH if unused. Non-standard residues stand in square brackets, D forms with d. Residues, ends and D or L forms follow the SMILES beside them. Groups on a side chain read outwards from the residue. No end group written: not given here. *: point of attachment. C20 diacid = O=C(O)CCCCCCCCCCCCCCCCCCC(=O)*; αMePhe(2-F) = C[C@](N)(Cc1ccccc1F)C(=O)O; γGlu = O=C(O)[C@H](CCC(=O)[*:2])N[*:1]; αMeL = CC(C)C[C@](C)(N)C(=O)O; AEEA = NCCOCCOCC(=O)O; Ac3c = NC1(C(=O)O)CC1; Aib = CC(C)(N)C(=O)O

T1: Human GIP R (Homo sapiens, UniProt P48546)
T1 construct: expressed in transfected cells; host or cells: CHO
T1 sequence (P48546 22-466): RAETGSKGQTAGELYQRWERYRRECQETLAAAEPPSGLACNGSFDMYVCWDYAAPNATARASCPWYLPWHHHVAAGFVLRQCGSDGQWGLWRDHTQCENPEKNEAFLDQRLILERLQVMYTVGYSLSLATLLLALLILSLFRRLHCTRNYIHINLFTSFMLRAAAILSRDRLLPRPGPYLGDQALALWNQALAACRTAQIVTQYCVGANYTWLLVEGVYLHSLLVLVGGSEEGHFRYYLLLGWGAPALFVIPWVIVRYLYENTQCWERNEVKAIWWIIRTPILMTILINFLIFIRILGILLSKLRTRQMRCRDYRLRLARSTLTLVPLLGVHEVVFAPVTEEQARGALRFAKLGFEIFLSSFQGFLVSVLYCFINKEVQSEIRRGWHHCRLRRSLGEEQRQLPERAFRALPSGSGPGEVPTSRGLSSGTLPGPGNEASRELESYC

T2: human GIP receptor (human) (UniProt P48546)
T2 sequence (looked up): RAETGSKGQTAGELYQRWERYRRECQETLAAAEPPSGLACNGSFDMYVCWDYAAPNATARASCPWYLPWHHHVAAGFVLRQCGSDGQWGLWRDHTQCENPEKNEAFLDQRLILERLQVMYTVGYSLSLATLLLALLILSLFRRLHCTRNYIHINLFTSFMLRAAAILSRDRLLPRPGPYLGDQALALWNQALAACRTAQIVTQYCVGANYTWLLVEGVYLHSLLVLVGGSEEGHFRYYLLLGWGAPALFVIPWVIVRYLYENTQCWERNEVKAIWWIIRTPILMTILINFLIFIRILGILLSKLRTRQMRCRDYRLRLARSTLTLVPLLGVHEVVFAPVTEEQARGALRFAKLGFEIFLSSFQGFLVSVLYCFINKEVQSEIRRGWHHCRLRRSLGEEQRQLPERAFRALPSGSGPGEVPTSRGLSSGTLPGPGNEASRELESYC


Tests used:
[1] = test system: human primary liver cells; format: cell-based
Summary of the method: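 cAMP readout after 60 min with detection reagent, following 60 min room-temperature compound incubation. Cells were primary human liver cells thawed at 37° C and resuspended in HBSS.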

RIN-m5F cells = format: cell-based, rat
Summary of the method: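 After 60 min room-temperature exposure of HBSS-suspended RIN-m5F cells to compound and another 60 min with detection reagent, cellular cAMP level was determined.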

Human GLP-1R = Human GLP-1R (Homo sapiens, UniProt P43220); assay: cAMP (HTRF) activity in HEK-293 cells stably overexpressing human GLP-1 receptor; format: cell-based; design: expressed in transfected cells; host or cells: HEK-293
Summary of the method: (§1)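 Cells resuspended in HBSS are incubated with compound for 60 min at room temperature, then with HTRF cAMP detection reagent for a further 60 min. Concentration-response fits give agonist EC50 values in nM.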

3T3-L1 adipocytes = test system: 3T3-L1 adipocytes
Summary of the method: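 Compound-induced cAMP was measured in mature 3T3-L1 adipocytes after 60 min room-temperature exposure to a 10-concentration, 3-fold dilution series, followed by 60 min with kit detection reagent and curve fitting. Differentiation used IBMX/dexamethasone/insulin (5 days), insulin with 10 uM rosiglitazone (3 days), then 2–3 days in 10% FBS.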

Human GIP R = target: T1, Human GIP R; assay: cAMP (HTRF) activity in CHO cells stably overexpressing GIP receptor; format: cell-based; details: EC50 of human GIP / EC50 of compound
Summary of the method: as §1

Human GCG R = target: T3, Human GCG R (Homo sapiens, UniProt P47871); assay: cAMP (HTRF) activity in HEK-293 cells stably overexpressing human GCG receptor; format: cell-based; details: EC50 of human GCG / EC50 of compound
T3 construct: expressed in transfected cells; host or cells: HEK-293
Summary of the method: as §1

C57 BL/6J DIO mice = assay: In vivo pharmacodynamics in high-fat diet induced obesity (DIO) mice; design: species or system mouse; details: Table 9-2; 3 nmol/kg; Day 15; Mean±SEM
From the text: High-fat diet induced obesity (DIO) mice have characteristics such as obesity, elevated blood sugar, insulin resistance, and lipid abnormalities, all of which are very significant metabolic syndromes similar to a human body. The effects of the compounds of the present application on body weight, food intake, blood sugar, and lipids in C57 BL/6J DIO mice were studied.
Obesity was induced in mice by feeding with a high-fat diet (60 kcal % of calories from fat). […] After grouping, one animal was raised in each cage for one week, during which each of the animals was injected subcutaneously (S.C.) with a solvent (1×PBS, 5 ml/kg) to pre-adapt the experimental operation process.
After the preparation of animals, vehicle control or compounds were administered to groups of animals by subcutaneous injection, in which the compounds were dissolved in 1×PBS, the dosage was 5 ml/kg, and the administration operation was started at 9:00 am and conducted once every three days (Q3D) for 15 days. Throughout the entire experimental study, animal weight and food intake were measured daily before administration, and compared with initial weight and food intake of the same animal before administration to calculate a percentage change in animal weight (%) and cumulative food intake, so as to evaluate the impact of compounds on changes in body weight and food intake.
At the end point of the experiment (Day 15), the body weight of the mice was measured, and then fasting blood glucose was measured by taking blood from the tail tip of broken tail without anesthesia. After the blood collection, the animals were anesthetized with CO2 and euthanized. Then, blood was taken from the heart and plasma was separated by centrifugation. The plasma was used to measure total cholesterol (TC), low-density lipoprotein cholesterol (LDL-C), triglycerides (TG), and blood insulin content. The liver was separated for homogenization, and then centrifuged to obtain the supernatant for determining triglyceride content in the liver.
All results were expressed in Mean±SEM, and the results were analyzed by one-way ANOVA using GraphPad Prism 5 software, followed by Dunnett's post hoc test compared to the Vehicle control group. The difference at the p<0.05 level was considered statistically significant.

[2] = target: T2, human GIP receptor (human); assay: cell-based or functional assay

Sequence of Human GLP-1R (P43220 24-463): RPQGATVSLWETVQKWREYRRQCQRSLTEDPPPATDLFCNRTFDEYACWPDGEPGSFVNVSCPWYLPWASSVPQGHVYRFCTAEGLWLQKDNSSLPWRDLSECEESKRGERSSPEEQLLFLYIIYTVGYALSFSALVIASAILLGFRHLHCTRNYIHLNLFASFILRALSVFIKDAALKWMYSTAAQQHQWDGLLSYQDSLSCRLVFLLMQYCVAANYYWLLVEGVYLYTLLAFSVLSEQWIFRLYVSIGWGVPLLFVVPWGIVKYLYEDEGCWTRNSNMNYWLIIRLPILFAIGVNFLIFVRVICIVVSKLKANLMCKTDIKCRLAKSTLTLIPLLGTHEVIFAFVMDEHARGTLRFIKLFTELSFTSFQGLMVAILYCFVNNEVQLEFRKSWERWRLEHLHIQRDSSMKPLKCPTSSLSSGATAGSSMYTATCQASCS
T3 sequence (P47871 26-477): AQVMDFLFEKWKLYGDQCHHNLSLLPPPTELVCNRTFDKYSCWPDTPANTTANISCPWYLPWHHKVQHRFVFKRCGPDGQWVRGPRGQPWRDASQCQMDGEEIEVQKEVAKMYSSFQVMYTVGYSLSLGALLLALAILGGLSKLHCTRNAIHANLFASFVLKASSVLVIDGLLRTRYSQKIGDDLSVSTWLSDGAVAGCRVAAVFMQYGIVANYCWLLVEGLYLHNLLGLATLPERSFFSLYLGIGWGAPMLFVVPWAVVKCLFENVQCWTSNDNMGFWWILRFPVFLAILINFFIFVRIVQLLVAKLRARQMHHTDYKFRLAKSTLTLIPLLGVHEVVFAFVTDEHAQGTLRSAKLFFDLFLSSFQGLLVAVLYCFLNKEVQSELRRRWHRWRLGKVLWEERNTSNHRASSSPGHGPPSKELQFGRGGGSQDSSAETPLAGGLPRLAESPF

Molecule | EC50 [1] [nM] | Rel. A (Relative Activity) on human primary liver cells ([1]; relative to GCG) [%] | EC50 (RIN-m5F cells) [nM] | Rel. A (Relative Activity) on RIN-m5F (RIN-m5F cells; relative to GLP-1(7-37)) [%] | Human GLP-1R Rel. A (Relative Activity) (Human GLP-1R; EC50 of human GLP-1 (7-37) / EC50 of compound) [%] | EC50 (Human GLP-1R; stable transfected cell cAMP activity, at least 3 independent tests) [nM] | EC50 (3T3-L1 adipocytes) [nM] | Rel. A (Relative Activity) on 3T3-L1 adipocyte (3T3-L1 adipocytes; relative to GIP) [%] | Human GIP R Rel. A (Relative Activity) (Human GIP R) [%] | Human GCG R Rel. A (Relative Activity) (Human GCG R) [%] | Liver TG (C57 BL/6J DIO mice) [mg] | cAMP EC50, CHO cells stably overexpressing human GIP R [2] [nM] | cAMP Rel. A (%) against human GIP, human GIP R cells [2] [%]
CC[C@H](C)[C@H](NC(=O)[C@H](Cc1ccccc1)NC(=O)[C@H](C)NC(=O)C(C)(C)NC(=O)[C@H](CCC(N)=O)NC(=O)[C@H](C)NC(=O)[C@H](CCCCNC(=O)COCCOCCNC(=O)COCCOCCNC(=O)CC[C@H](NC(=O)CCCCCCCCCCCCCCCCCCC(=O)O)C(=O)O)NC(=O)[C@H](CCCCN)NC(=O)[C@H](CC(=O)O)NC(=O)[C@H](CC(C)C)NC(=O)[C@](C)(CC(C)C)NC(=O)[C@@H](NC(=O)[C@H](CO)NC(=O)[C@H](Cc1ccc(O)cc1)NC(=O)[C@H](CC(=O)O)NC(=O)[C@H](CO)NC(=O)[C@@H](NC(=O)[C@](C)(Cc1ccccc1F)NC(=O)[C@@H](NC(=O)CNC(=O)[C@H](CCC(N)=O)NC(=O)C(C)(C)NC(=O)[C@@H](N)Cc1ccc(O)cc1)[C@@H](C)O)[C@@H](C)O)[C@@H](C)CC)C(=O)N[C@@H](CCC(=O)O)C(=O)N[C@@H](Cc1ccccc1)C(=O)N[C@@H](CC(C)C)C(=O)N[C@@H](CC(C)C)C(=O)N[C@@H](CCC(=O)O)C(=O)N[C@@H](CO)C(=O)N[C@@H](Cc1c[nH]cn1)C(=O)N1CCC[C@H]1C(=O)N[C@@H](CO)C(=O)N[C@@H](CO)C(=O)NC(C)(C)C(=O)N[C@@H](Cc1c[nH]cn1)C(=O)N1CCC[C@H]1C(=O)N1CCC[C@H]1C(=O)NC1(C(=O)N[C@@H](CO)C(N)=O)CC1 [Compound 40] (H-Y[Aib]QGT[αMePhe(2-F)]TSDYSI[αMeL]LDKK([AEEA-AEEA-γGlu-C20 diacid])AQ[Aib]AFIEFLLESHPSS[Aib]HPP[Ac3c]S-NH2) | 1.07 | 364.33 | 0.16 | 645.00 | 275.00 | 0.016 | 2.56 | 148.46 | 150.83 | 34.13 | 42.1 ± 5.22 |  | 
Y[Aib]QGTFTSDYSI[Aib]LDKIAQK([AEEA-AEEA-γGlu-C20 diacid])AFVQWLIAGGPSSGAPPPS-NH2 (N-terminus assumed; SMILES CC[C@H](C)[C@H](NC(=O)[C@H](CC(C)C)NC(=O)[C@H](Cc1c[nH]c2ccccc12)NC(=O)[C@H](CCC(N)=O)NC(=O)[C@@H](NC(=O)[C@H](Cc1ccccc1)NC(=O)[C@H](C)NC(=O)[C@H](CCCCNC(=O)COCCOCCNC(=O)COCCOCCNC(=O)CC[C@H](NC(=O)CCCCCCCCCCCCCCCCCCC(=O)O)C(=O)O)NC(=O)[C@H](CCC(N)=O)NC(=O)[C@H](C)NC(=O)[C@@H](NC(=O)[C@H](CCCCN)NC(=O)[C@H](CC(=O)O)NC(=O)[C@H](CC(C)C)NC(=O)C(C)(C)NC(=O)[C@@H](NC(=O)[C@H](CO)NC(=O)[C@H](Cc1ccc(O)cc1)NC(=O)[C@H](CC(=O)O)NC(=O)[C@H](CO)NC(=O)[C@@H](NC(=O)[C@H](Cc1ccccc1)NC(=O)[C@@H](NC(=O)CNC(=O)[C@H](CCC(N)=O)NC(=O)C(C)(C)NC(=O)[C@@H](N)Cc1ccc(O)cc1)[C@@H](C)O)[C@@H](C)O)[C@@H](C)CC)[C@@H](C)CC)C(C)C)C(=O)N[C@@H](C)C(=O)NCC(=O)NCC(=O)N1CCC[C@H]1C(=O)N[C@@H](CO)C(=O)N[C@@H](CO)C(=O)NCC(=O)N[C@@H](C)C(=O)N1CCC[C@H]1C(=O)N1CCC[C@H]1C(=O)N1CCC[C@H]1C(=O)N[C@@H](CO)C(N)=O) [Tirzepatide] |  |  |  |  |  |  |  |  |  |  |  | 0.21 | 86.2
